For 81 molecules, chromatographic logP results are on record in patent publication EP2017264A1, “Substituted phenyl propargyl compounds, method for their manufacture and their use as herbicides and plant growth regulators” (BAYER CROPSCIENCE AG, priority 2007, dated 2009).

A short description of this series: physchem.
Protocol: "LogP" = Verteilungskoeffizient in einem Zweiphasengemisch aus n-Octanol und Wasser.
Die log P-Daten wurden in Übereinstimmung mit der EEC Direktive 79/831, Anlage V.A8 (Annex V.A8) mittels HPLC (High Performance Liquid Chromatography) auf einer Umkehrphase-Säule (reversed-phase column) (C18) mit folgenden Methoden bestimmt: Temperatur: 40°C; Mobile Phase: 0,1 % bzw. 0,06 %ige wässrige Ameisensäure oder 0,1 % wässriger Phosphorsäure und Acetonitril; linearer Gradient von 10% Acetonitril bis 90% bzw. 95 % Acetonitril. Die Kalibrierung wurde ausgeführt mit Hilfe unverzweigter Alkan-2-one (bestehend aus 3 bis 13 bzw.16 Kohlenstoff-Atomen) mit bekannten IogP-Werten (Bestimmung der IogP-Werte über die Retentionszeiten mittels linearer Interpolation zwischen zwei nachfolgenden Alkanonen).
Molecule `COc1ccccc1C=NOCC#Cc1ccc(F)c(SC)c1` [Beispiel 1.053] gave a chromatographic logP of 4.51.

Turning to `CCSc1cccc(C#CCON=Cc2ccccc2OC)c1` [Beispiel 1.056], the chromatographic logP amounted to 4.9.

Molecule `COc1cc(F)ccc1C=NOCC#Cc1ccc(F)c(SC)c1` [Beispiel 1.066] yielded a chromatographic logP of 4.58.

Turning to `CCSc1cccc(C#CCON=Cc2ccc(F)cc2OC)c1` [Beispiel 1.069], the chromatographic logP amounted to 4.9.

As to `Cc1ccc(C#CCON=Cc2ccccc2Oc2ccc(Cl)cc2)cc1[S+](C)[O-]` (stereo not drawn) [Beispiel 1.379], the chromatographic logP was determined as 4.11.

Turning to `COc1ccccc1C=NOCC#Cc1cccc([S+]([O-])C(F)(F)F)c1` (stereo not drawn) [Beispiel 1.380], the chromatographic logP was 3.88.

The molecule `COc1ccccc1C=NOCC#Cc1ccccc1SC` [Beispiel 1.386] showed a chromatographic logP of 4.23.

With `COc1ccc(C=NOCC#Cc2cccc(CC#N)c2)c(OC)c1` [Beispiel 1.387], the chromatographic logP was 3.22.

`COc1ccc(C=NOCC#Cc2cccc(SC)c2)c(OC)c1` [Beispiel 1.388] registered a chromatographic logP of 4.4.

The molecule `COc1ccc(C=NOCC#Cc2cccc([S+](C)[O-])c2)c(OC)c1` (stereo not drawn) [Beispiel 1.389] came in with a chromatographic logP of 2.42.

With `COc1cccc(OC)c1C=NOCC#Cc1cccc(SC)c1` [Beispiel 1.393], the chromatographic logP was determined as 3.77.

`COc1ccccc1C=NOCC#Cc1ccc(C#N)c(SC)c1` [Beispiel 1.394] returned a chromatographic logP of 3.94. The chromatographic logP values of the last two molecules are within 0.2 log units of each other.

Consider `COc1cc(F)ccc1C=NOCC#Cc1ccc(C#N)c(SC)c1` [Beispiel 1.395], for which the chromatographic logP is 3.97.

Regarding `COc1cccc(OC)c1C=NOCC#Cc1cccc([S+](C)[O-])c1` (stereo not drawn) [Beispiel 1.396], the chromatographic logP is 2.04.

`COc1cccc(OC)c1C=NOCC#Cc1cccc(CC#N)c1` [Beispiel 1.397]: the chromatographic logP turned out to be 2.86.

Take `CCSc1cc(C#CCON=Cc2ccccc2OC)ccc1OC` [Beispiel 1.398]: the chromatographic logP is 4.45.

`CCSc1cc(C#CCON=Cc2ccc(F)cc2OC)ccc1OC` [Beispiel 1.399]: the chromatographic logP came to 4.53.

The molecule `CC[S+]([O-])c1cc(C#CCON=Cc2ccccc2OC)ccc1OC` (stereo not drawn) [Beispiel 1.401] yielded a chromatographic logP of 3.07.

Molecule `CC[S+]([O-])c1cc(C#CCON=Cc2ccc(F)cc2OC)ccc1OC` (stereo not drawn) [Beispiel 1.402] gave a chromatographic logP of 3.19.

With `CCC(=NOCC#Cc1cccc(OC)c1)c1ccccc1` [Beispiel 1.403], the chromatographic logP turned out to be 4.45.

The molecule `CCC(=NOCC#Cc1cccc(C(F)(F)F)c1)c1ccccc1` [Beispiel 1.404] came in with a chromatographic logP of 5.13.

`CCC(=NOCC#Cc1cccc(SC)c1)c1ccccc1` [Beispiel 1.405] displayed a chromatographic logP of 4.84.

For the molecule `CCC(=NOCC#Cc1cccc(CC#N)c1)c1ccccc1` [Beispiel 1.406], the chromatographic logP came to 3.87.

Molecule `CCC(=NOCC#Cc1cccc(OC)c1)c1ccc(C)cc1` [Beispiel 1.407] showed a chromatographic logP of 4.92.

Regarding `CCC(=NOCC#Cc1cccc(C(F)(F)F)c1)c1ccc(C)cc1` [Beispiel 1.408], the chromatographic logP was found to be 5.53.

`CCC(=NOCC#Cc1cccc(SC)c1)c1ccc(C)cc1` [Beispiel 1.409] had a chromatographic logP of 5.36.

In turn, `CCC(=NOCC#Cc1cccc(CC#N)c1)c1ccc(C)cc1` [Beispiel 1.410] came in with a chromatographic logP of 4.18.

On to `CCC(=NOCC#Cc1cccc(OC)c1)c1ccc(F)cc1` [Beispiel 1.411], for which the chromatographic logP turned out to be 4.54.

For the molecule `CCC(=NOCC#Cc1cccc(C(F)(F)F)c1)c1ccc(F)cc1` [Beispiel 1.412], the chromatographic logP was 5.13.

With `CCC(=NOCC#Cc1cccc(SC)c1)c1ccc(F)cc1` [Beispiel 1.413], the chromatographic logP is 4.97.

As for `CCC(=NOCC#Cc1cccc(CC#N)c1)c1ccc(F)cc1` [Beispiel 1.414], the chromatographic logP worked out at 3.88.

Consider `CCC(=NOCC#Cc1cccc(OC)c1)c1ccccc1F` [Beispiel 1.415], for which the chromatographic logP was determined as 4.42.

Regarding `CCC(=NOCC#Cc1cccc(C(F)(F)F)c1)c1ccccc1F` [Beispiel 1.416], the chromatographic logP was determined as 5.03.

In turn, `CCC(=NOCC#Cc1cccc(SC)c1)c1ccccc1F` [Beispiel 1.417] returned a chromatographic logP of 4.84.

In turn, `CCC(=NOCC#Cc1cccc(CC#N)c1)c1ccccc1F` [Beispiel 1.418] registered a chromatographic logP of 3.72.

Molecule `CCC(=NOCC#Cc1cccc(CC#N)c1)c1cccc(Cl)c1Cl` [Beispiel 1.419] had a chromatographic logP of 4.84.

On to `CCC(=NOCC#Cc1cccc([S+](C)[O-])c1)c1ccccc1` (stereo not drawn) [Beispiel 1.420], for which the chromatographic logP worked out at 2.93.

Consider `CCC(=NOCC#Cc1cccc([S+](C)[O-])c1)c1ccc(C)cc1` (stereo not drawn) [Beispiel 1.421], for which the chromatographic logP amounted to 3.46.

In turn, `CCC(=NOCC#Cc1cccc([S+](C)[O-])c1)c1cccc(Cl)c1Cl` (stereo not drawn) [Beispiel 1.422] yielded a chromatographic logP of 4.12.

With `CCC(=NOCC#Cc1cccc([S+](C)[O-])c1)c1ccc(F)cc1` (stereo not drawn) [Beispiel 1.423], the chromatographic logP turned out to be 3.14.

On to `CCSc1cc(C#CCON=Cc2ccccc2OC)ccc1C` [Beispiel 1.424], for which the chromatographic logP was determined as 5.33.

In turn, `CCSc1cc(C#CCON=Cc2ccc(F)cc2OC)ccc1C` [Beispiel 1.425] had a chromatographic logP of 5.38.

Molecule `CC[S+]([O-])c1cc(C#CCON=Cc2ccccc2OC)ccc1C` (stereo not drawn) [Beispiel 1.426] came in with a chromatographic logP of 3.05.

The molecule `CC[S+]([O-])c1cc(C#CCON=Cc2ccc(F)cc2OC)ccc1C` (stereo not drawn) [Beispiel 1.427] showed a chromatographic logP of 3.15.

`COc1ccccc1C=NOCC#Cc1cccc(OC(F)(F)F)c1` [Beispiel 1.428] yielded a chromatographic logP of 4.72.

In the case of `COc1cc(F)ccc1C=NOCC#Cc1cccc(OC(F)(F)F)c1` [Beispiel 1.429], the chromatographic logP was determined as 4.77.

Consider `COc1ccccc1C=NOCC#Cc1cccc(SC(C)C)c1` [Beispiel 1.430], for which the chromatographic logP is 5.24.

In turn, `COc1cc(F)ccc1C=NOCC#Cc1cccc(SC(C)C)c1` [Beispiel 1.431] showed a chromatographic logP of 5.26.

In the case of `C=CCSc1cccc(C#CCON=Cc2ccc(F)cc2OC)c1` [Beispiel 1.432], the chromatographic logP stood at 5.24.

For the molecule `COc1cc(F)ccc1C=NOCC#Cc1ccc(OC)c(SC)c1` [Beispiel 1.433], the chromatographic logP was 4.32.

`COc1ccccc1C=NOCC#Cc1ccc(OC)c(SC)c1` [Beispiel 1.434]: the chromatographic logP was 4.24.

In turn, `COc1cc(F)ccc1C=NOCC#Cc1ccc(F)c(SC)c1F` [Beispiel 1.435] came in with a chromatographic logP of 4.54.

For `COc1ccccc1C=NOCC#Cc1ccc(F)c(SC)c1F` [Beispiel 1.436], the chromatographic logP came to 4.48. This chromatographic logP and that of the molecule before are within 0.2 log units of each other.

Molecule `COc1ccccc1C=NOCC#Cc1ccc(F)c([S+](C)[O-])c1F` (stereo not drawn) [Beispiel 1.437] gave a chromatographic logP of 2.66.

`COc1cc(F)ccc1C=NOCC#Cc1ccc(F)c([S+](C)[O-])c1F` (stereo not drawn) [Beispiel 1.438] yielded a chromatographic logP of 2.75.

For the molecule `COc1ccccc1C=NOCC#Cc1cccc(F)c1F` [Beispiel 1.439], the chromatographic logP turned out to be 4.29.

Take `COc1ccccc1C=NOCC#Cc1cc(C)c(F)c(SC)c1` [Beispiel 1.440]: the chromatographic logP was 5.01.

As to `COc1cc(F)ccc1C=NOCC#Cc1cc(C)c(F)c(SC)c1` [Beispiel 1.441], the chromatographic logP worked out at 5.05.

Molecule `COc1cc(F)ccc1C=NOCC#Cc1ccccc1SC` [Beispiel 1.442] gave a chromatographic logP of 4.29.

`COc1cc(F)ccc1C=NOCC#Cc1cc(C)c(F)c([S+](C)[O-])c1` (stereo not drawn) [Beispiel 1.443] displayed a chromatographic logP of 3.43.

As for `COc1ccccc1C=NOCC#Cc1cc(C)c(F)c([S+](C)[O-])c1` (stereo not drawn) [Beispiel 1.444], the chromatographic logP stood at 3.32.

As for `COc1ccccc1C=NOCC#Cc1ccccc1[S+](C)[O-]` (stereo not drawn) [Beispiel 1.445], the chromatographic logP was 2.73.

`COc1cc(F)ccc1C=NOCC#Cc1ccccc1[S+](C)[O-]` (stereo not drawn) [Beispiel 1.446]: the chromatographic logP was 2.86.

`COc1cc(F)ccc1C=NOCC#Cc1ccc(F)c(F)c1SC` [Beispiel 1.447] returned a chromatographic logP of 4.58.

`COc1cc(F)ccc1C=NOCC#Cc1ccc(F)c(F)c1[S+](C)[O-]` (stereo not drawn) [Beispiel 1.448] came in with a chromatographic logP of 2.78.

On to `COc1cc(F)ccc1C=NOCC#Cc1cc(SC)c(F)c(SC)c1` [Beispiel 1.449], for which the chromatographic logP stood at 5.17.

`COc1ccccc1C=NOCC#Cc1cc(SC)c(F)c(SC)c1` [Beispiel 1.450] returned a chromatographic logP of 5.05.

Take `CSc1cccc(C#CC(C)ON=Cc2cccc(C)n2)c1` (stereo not drawn) [Beispiel 3.085]: the chromatographic logP worked out at 3.79.

In turn, `CSc1cccc(C#CCON=C(C)c2cccc(C)n2)c1` [Beispiel 3.091] yielded a chromatographic logP of 4.18.

`CC(=NOCC#Cc1cccc([S+](C)[O-])c1)c1cccc(C)n1` (stereo not drawn) [Beispiel 3.092] came in with a chromatographic logP of 1.75.

The molecule `CC(=NOCC#Cc1cccc(S(C)(=O)=O)c1)c1cccc(C)n1` [Beispiel 3.093] returned a chromatographic logP of 2.4.

`CC(=NOCC#Cc1cccc(CC#N)c1)c1cccc(C)n1` [Beispiel 3.094] yielded a chromatographic logP of 2.96.

As for `CCC(=NOCC#Cc1cccc(SC)c1)c1cccc(C)n1` [Beispiel 3.095], the chromatographic logP came to 4.77.

`CCC(=NOCC#Cc1cccc([S+](C)[O-])c1)c1cccc(C)n1` (stereo not drawn) [Beispiel 3.096] displayed a chromatographic logP of 2.21.

With `CCC(=NOCC#Cc1cccc(S(C)(=O)=O)c1)c1cccc(C)n1` [Beispiel 3.097], the chromatographic logP was determined as 2.93.

Consider `CCC(=NOCC#Cc1cccc(CC#N)c1)c1cccc(C)n1` [Beispiel 3.098], for which the chromatographic logP is 3.5.

With `CSc1cccc(C#CCON=Cc2cc(C(F)(F)F)c(Cl)cn2)c1` [Beispiel 3.120], the chromatographic logP is 4.92.

As for `C[S+]([O-])c1cccc(C#CCON=Cc2cc(C(F)(F)F)c(Cl)cn2)c1` (stereo not drawn) [Beispiel 3.121], the chromatographic logP was determined as 2.96.

For the molecule `CCOc1nc(C=NOCC#Cc2cccc(SC)c2)ccc1F` [Beispiel 3.125], the chromatographic logP was 4.76.

`CCOc1nc(C=NOCC#Cc2cccc([S+](C)[O-])c2)ccc1F` (stereo not drawn) [Beispiel 3.126] came in with a chromatographic logP of 2.78.

`CSc1cccc(C#CCON=Cc2nccnc2SC)c1` [Beispiel 4.078] returned a chromatographic logP of 4.18.

By chromatographic logP is commonly meant a lipophilicity value derived from retention on a column. Read a high chromatographic logP as higher lipophilicity.
